# Data as given in patent publication US20140051762A1, “POLYCATIONIC COMPOUNDS AND USES THEREOF” (priority 2004, published 2014).
# “And” between values parts separate entries of the source, which are not always exact repeats. Identical values can stand only once.
# Key:
# [1] = system: FGF2-induced angiogenesis in the CAM model; experiment: FGF2-induced angiogenesis in the chick chorioallantoic membrane (CAM) model; type: in vivo, chick embryo; details: for Mean % inhibition ± SEM: Table 4
# Description: The following example illustrates the anti-angiogenic effect of exemplary polycationic compounds of the present invention. Ten-day old embryos were purchased from Spafas, Inc. (Preston, Conn.) and were incubated at 37° C. with 55% relative humidity. In the dark with the help of a candling lamp, a small hole was punctured in the shell concealing the air sac with a hypodermic needle. A second hole was punctured in the shell on the broadside of the egg directly over an avascular portion of the embryonic membrane, as observed during candling. A false air sac was created beneath the second hole by the application of negative pressure to the first hole, which caused the chorioallantoic membrane (CAM) to separate from the shell. A window, approximately 1.0 cm^2, was cut in the shell over the dropped CAM with the use of a small crafts grinding wheel (Dremel, Division of Emerson Electric Company Racine, Wis.) which allowed direct access to the underlying CAM. Filter disks of #1 filter paper (Whatman International, United Kingdom) were soaked in 3 mg/mL cortisone acetate (Sigma, St. Louis, Mo.) in a solution of 95% ethanol and water and subsequently air dried under sterile conditions. FGF2 (Life Technologies, Gaithersburg, Md.) was used to grow vessels on the CAMs of 10 day old chick embryos. Sterile filter disks adsorbed with FGF2 dissolved in PBS at 1μg/mL were placed on growing CAMs. […] At 24 h, test compounds or control vehicle was added directly to CAM topically.
# CAM tissue directly beneath FGF2-saturated filter disk was resected from embryos treated 48 hours prior with test compound or control. Tissues were washed three times with PBS. Sections were placed in a 35-mm petri dish (Nalgen Nunc, Rochester, N.Y.) and examined under a SV6 stereomicroscope (Karl Zeiss, Thornwood, N.Y.) at 50× magnification. Digital images of CAM sections adjacent to filters were collected using a 3-CCD color video camera system (Toshiba America, New York, N.Y.) and analyzed using Image-Pro Plus software (Media Cybernetics, Silver Spring, Md.). Table 4 contains the number of vessel branch points contained in a circular region equal to the area of a filter disk counted for each section.
# CAM tissue directly beneath FGF2-saturated filter disk was resected from embryos treated 48 h prior with compound or control. Tissues were washed three times with PBS. Sections were placed in a 35-mm petri dish (Nalge Nunc, Rochester, N.Y.) and examined under a SV6 stereomicroscope (Karl Zeiss, Thornwood, N.Y.) at 50× magnification. Digital images of CAM sections adjacent to filters were collected using a 3-CCD color video camera system (Toshiba America, New York, N.Y.) and analyzed with the Image-Pro Plus software (Media Cybernetics, Silver Spring, Md.).
# human red blood cells = experiment: lysis of 50% of human red blood cells (HC50); type: cell-based
# Description: (§1) The following example illustrates the heparin antagonistic effects of polycationic compounds of the present invention. To determine the anti-heparin activity of the polycationic compounds an assay measuring the percent inhibition using a fixed concentration of polycationic compound or concentrations of polycationic compounds causing lysis of 50% of human red blood cells were conducted.
# (§2) Factor Xa Inhibition: EC50. To determine the concentration of polycationic compound that causes about 50% […], fixed heparin concentrations were used and different amounts of heparin antagonists were added.
# Factor Xa [2] = experiment: anti-heparin assay, % Factor Xa inhibition at single concentration (chromogenic substrate S-2765); type: biochemical; details: Single concentration (10 ug/ml)
# Description: as §1
# (§3) 10 IU of anti-thrombin was dissolved in 10 ml of buffer, resulting in a 1 IU/ml stock solution (250×) of the anti-thrombin. The 1 IU/ml (250×) stock solution of anti-thrombin and a 336 mM stock solution of NaCl were diluted into a total volume of 50 μl buffer so that the final anti-thrombin concentration was 0.004 IU/sample well and the NaCl was 150 mM/sample well. 1 μl of the compound to be tested, final concentration 10 μg/ml (corresponding to 0.5 logarithmic antagonist dilution) is added to the sample well. The samples are mixed and allowed to incubate at room temperature for 20 minutes. 50 μl of factor Xa dissolved in buffer is added to the sample well to a final concentration of 0.14 knat/well (2 μl of the 7.1 kna/1 ml stock solution to a final sample well buffer volume of 100 μl). The samples were mixed and further incubated at room temperature for 10 minutes. 10 μl of a 4 mM stock solution of the substrate S-2765 was added to each sample well for a final concentration of 0.4 mM in each sample well. The samples were mixed and hydrolyses of the chromogenic substrate Z-D-Arg-Gly-Arg-pNA (S-2765), thus liberating the chromophoric group pNA (p-nitroaniline), was monitored at 405 nm. The samples were mixed every 30 seconds to maintain a uniform mixture. ThermoLabsystems Multiskan Spectrum spectrophotometer was used to measure the absorbance spectrums. The increase in absorbance was proportional to the enzyme (factor Xa) activity. The % inhibition of factor Xa was determined using a standard curve.
# Factor Xa [3] = experiment: Factor Xa inhibition EC50 (fixed heparin concentrations, different amounts of heparin antagonist); type: biochemical; details: read-out: FactorXa Inhibition: EC50
# Description: as §1, §3, §2
# heparin = experiment: effect on coagulation time and heparin efficacy
# Description: The following example illustrates the effect of a polycationic compound of the present invention on coagulation time. The anti-heparin assay as described herein was used. The assay contained either 1 mg/L, 2 mg/L or 4 mg/I of heparin and increasing amounts of Compound 26 was added.
# [4] = Heparin 1 mg/L, Compound 26 1.25 mg/L
# [5] = Heparin 1 mg/L, Compound 26 2 mg/L
# [6] = Heparin 1 mg/L, Compound 26 2.5 mg/L
# [7] = Heparin 1 mg/L, Compound 26 4 mg/L
# [8] = Heparin 2 mg/L, Compound 26 2.5 mg/L
# [9] = Heparin 2 mg/L, Compound 26 4 mg/L
# [10] = Heparin 2 mg/L, Compound 26 5 mg/L
# [11] = Heparin 2 mg/L, Compound 26 6 mg/L
# [12] = Heparin 2 mg/L, Compound 26 10 mg/L
# [13] = Heparin 4 mg/L, Compound 26 2.5 mg/L
# [14] = Heparin 4 mg/L, Compound 26 4 mg/L
# [15] = Heparin 4 mg/L, Compound 26 5 mg/L
# [16] = Heparin 4 mg/L, Compound 26 6 mg/L
# [17] = Heparin cell empty (4 mg/L from line above), Compound 26 10 mg/L
molecule,measurement,setting,value
COc1ccc(NC(=O)C(CCCCN)NC(=O)c2cc(NC(=O)C(CCCCN)NC(=O)c3cc(NC(=O)C(CCCCN)NC(=O)c4cc(NC(=O)C(N)CCCCN)ccc4OC)ccc3OC)ccc2OC)cc1C(N)=O (stereo not shown) [Compound 50],Mean % inhibition ± SEM,"[1]; 1.0 ug + FGF2 (1 ug), n = 8",21 ± 9%
same,Mean % inhibition ± SEM,"[1]; 3.0 ug + FGF2 (1 ug), n = 8",42 ± 8%
same,Mean % inhibition ± SEM,"[1]; 10 ug + FGF2 (1 ug), n = 8",66 ± 7%
same,HC50,human red blood cells,637 μg/ml and 377 μM
CC(C)(C)c1cc(NC(=O)c2cccc(C(=O)Nc3cc(C(C)(C)C)cc(NC(=O)[C@H](N)CCCNC(=N)N)c3SCCN)c2)c(SCCN)c(NC(=O)[C@H](N)CCCNC(=N)N)c1 [Compound 7],% FactorXa Inhibition,Factor Xa [2],5.506%
same,EC50,Factor Xa [3],3.7 µM
same,HC50,human red blood cells,715 μg/ml and 519 μM
N=C(N)NCCOc1cc(OCCNC(=N)N)c(C(=O)Nc2cccc(N)c2SCCNC(=N)N)cc1C(=O)Nc1cccc(N)c1SCCNC(=N)N [Compound 27],% inhibition ± SEM,"[1]; Table 3, 0.1 ug + FGF2 (1 ug)",34 ± 9%
same,Branch pts ± SEM,"[1]; Table 3, 0.1 ug + FGF2 (1 ug)",144 ± 9
same,% FactorXa Inhibition,Factor Xa [2],8.886%
same,EC50,Factor Xa [3],9.7 µM
same,HC50,human red blood cells,">2,000 μg/ml"
N=C(N)NCCC[C@@H](N)C(=O)Nc1cccc(NC(=O)c2cc(C(=O)Nc3cccc(NC(=O)[C@H](N)CCCNC(=N)N)c3SCCN)c(OCCN)cc2OCCN)c1SCCN [Compound 26],% inhibition ± SEM,"[1]; Table 3, 1.0 ug + FGF2 (1 ug)",55 ± 8%
same,Branch pts ± SEM,"[1]; Table 3, 1.0 ug + FGF2 (1 ug)",123 ± 7
same,% FactorXa Inhibition,Factor Xa [2],48.14%
same,EC50,Factor Xa [3],2 µM
same,HC50,human red blood cells,">2,000 μg/ml"
same,Coagulation Time,heparin; [4],42.8 s
same,Heparin Efficacy,heparin; [4],0.6506
same,Coagulation Time,heparin; [5],33.4 s
same,Heparin Efficacy,heparin; [5],0.2402
same,Coagulation Time,heparin; [6],31.3 s
same,Heparin Efficacy,heparin; [6],0.1485
same,Coagulation Time,heparin; [7],27.9 s
same,Heparin Efficacy,heparin; [7],−1.67E−08
same,Coagulation Time,heparin; [8],40.2 s
same,Heparin Efficacy,heparin; [8],0.1108
same,Coagulation Time,heparin; [9],33.9 s
same,Heparin Efficacy,heparin; [9],0.03149
same,Coagulation Time,heparin; [10],31.9 s
same,Heparin Efficacy,heparin; [10],0.006297
same,Coagulation Time,heparin; [11],31.8 s
same,Heparin Efficacy,heparin; [11],0.005038
same,Coagulation Time,heparin; [12],34.4 s
same,Heparin Efficacy,heparin; [12],0.03778
same,Coagulation Time,heparin; [13],124.8 s
same,Heparin Efficacy,heparin; [13],0.513
same,Coagulation Time,heparin; [14],87.4 s
same,Heparin Efficacy,heparin; [14],0.3108
same,Coagulation Time,heparin; [15],55.8 s
same,Heparin Efficacy,heparin; [15],0.14
same,Coagulation Time,heparin; [16],35.4 s
same,Heparin Efficacy,heparin; [16],0.02973
same,Coagulation Time,heparin; [17],29.9 s
same,Heparin Efficacy,heparin; [17],−2.06E−09
same,effect on coagulation time (in words),heparin; varying concentrations of heparin,decreased the coagulation time
CC(C)(C)c1cc(N)c(SCCN)c(NC(=O)c2cc(C(=O)Nc3cc(C(C)(C)C)cc(N)c3SCCN)ncn2)c1 [Compound 33],% inhibition ± SEM,"[1]; Table 3, 1.0 ug + FGF2 (1 ug)",17 ± 18%
same,Branch pts ± SEM,"[1]; Table 3, 1.0 ug + FGF2 (1 ug)",160 ± 18
same,% FactorXa Inhibition,Factor Xa [2],32.02%
"fibroblast growth factor 2 [FgF2, reference compound]",Branch pts ± SEM,"[1]; Table 2, FgF alone 1.0 ug/ml, n = 8",155 ± 10
same,Branch pts ± SEM,"[1]; Table 3, FgF2 alone 1.0 ug/ml",177 ± 10
COc1ccc(NC(=O)C(CCCNC(=N)N)NC(=O)c2cc(NC(=O)C(CCCNC(=N)N)NC(=O)c3cc(NC(=O)C(CCCNC(=N)N)NC(=O)c4cc(NC(=O)C(N)CCCNC(=N)N)ccc4OC)ccc3OC)ccc2OC)cc1C(N)=O (stereo not shown) [Compound 48],Mean % inhibition ± SEM,"[1]; 1.0 ug + FGF2 (1 ug), n = 8",16 ± 6%
same,Mean % inhibition ± SEM,"[1]; 3.0 ug + FGF2 (1 ug), n = 8",38 ± 8%
same,Mean % inhibition ± SEM,"[1]; 10 ug + FGF2 (1 ug), n = 8",55 ± 7%
same,HC50,human red blood cells,261 μg/ml and 144 μM
NCCOc1cc(OCCN)c(C(=O)Nc2cccc(N)c2SCCN)cc1C(=O)Nc1cccc(N)c1SCCN [Compound 25],% FactorXa Inhibition,Factor Xa [2],0%
same,EC50,Factor Xa [3],5.3 µM
same,HC50,human red blood cells,">2,000 μg/ml"
